Assay results as given in ChEMBL document CHEMBL1149003, “Studies on cytotoxic constituents in pericarps of Mallotus japonicus, Part II” (J Nat Prod, 1986).
In brackets after ≈: the same amount, converted by molar mass.

Tests used:
L5178Y = test: Cytotoxicity against mouse L5178Y cells; assay type: functional; details: read-out: ED50 (the source's name)
KB = test: Cytotoxicity against human KB cells; assay type: functional; details: read-out: ED50 (the source's name)
[1] = Antitumor activity against mouse solid EAC cells xenografted in ddY mouse at 7 mg/kg, ip qd for 3 to 8 days measured after 10 days relative to control; assay type: functional, Ehrlich; details: route intraperitoneal
[2] = Antitumor activity against mouse solid EAC cells xenografted in ddY mouse assessed as tumor weight at 7 mg/kg, ip qd for 3 to 8 days measured after 10 days; assay type: functional, Ehrlich; details: route intraperitoneal
[3] = Antitumor activity against mouse solid EAC cells xenografted in ddY mouse at 20 mg/kg, ip qd for 3 to 8 days measured after 10 days relative to control; assay type: functional, Ehrlich; details: route intraperitoneal
[4] = Antitumor activity against mouse EAC cells xenografted in ddY mouse assessed as median survival time at 20 mg/kg, ip qd for 2 to 8 days; assay type: functional, Ehrlich; details: route intraperitoneal
[5] = Antitumor activity against mouse EAC cells xenografted in ddY mouse assessed as median survival time at 7 mg/kg, ip qd for 2 to 8 days; assay type: functional, Ehrlich; details: route intraperitoneal
Mus musculus [6] = test: Toxicity in ddY mouse xenografted with mouse solid Ehrlich carcinoma cells assessed as mortality at 20 mg/kg, ip qd for 3 to 8 days measured after 10 days; assay type: organism-based; parameters: dose 20 mg/kg, route intraperitoneal; details: in vivo, 240 h
[7] = Antitumor activity against mouse solid EAC cells xenografted in ddY mouse assessed as tumor weight at 20 mg/kg, ip qd for 3 to 8 days measured after 10 days; assay type: functional, Ehrlich; details: route intraperitoneal
Mus musculus [8] = test: Toxicity in ddY mouse xenografted with mouse solid Ehrlich carcinoma cells assessed as mortality at 7 mg/kg, ip qd for 3 to 8 days measured after 10 days; assay type: organism-based; parameters: dose 7 mg/kg, route intraperitoneal; details: in vivo, 240 h

Row | Compound | EC50 (L5178Y) [µg/mL] | EC50 (KB) [µg/mL] | T/C [1] [%] | Activity [2] [g] | T/C [3] [%] | MST [4] [days] | MST [5] [days] | Activity (Mus musculus [6]) | Activity [7] [g] | Activity (Mus musculus [8])
1 | COc1c(C)c(O)c(C(C)=O)c(O)c1Cc1c(O)c2c(c(C(C)=O)c1O)OC(C)(C)C(O)C2 (racemic) [MALLOTOCHROMANOL] | > 100 | > 100 |  |  |  |  |  |  |  | 
2 | COc1c(C)c(O)c(C(C)=O)c(O)c1Cc1c(O)c2c(c(C(C)=O)c1O)OC(C)(C)C=C2 [MALLOTOCHROMENE] | 1.25 (≈ 2.83 µM) | 2.1 (≈ 4.75 µM) |  |  |  |  |  |  |  | 
3 | C=C(C)C(O)Cc1c(O)c(Cc2c(O)c(C(C)=O)c(O)c(C)c2OC)c(O)c(C(C)=O)c1O (racemic) | 2.45 (≈ 5.32 µM) | 1.22 (≈ 2.65 µM) |  |  |  |  |  |  |  | 
4 | C=C(C)C(O)Cc1c(O)c(Cc2c(O)c(C(C)=O)c(O)c(C)c2OC)c(O)c(C(=O)CCC)c1O (racemic) [MALLOTOLERIN] | 0.82 (≈ 1.68 µM) | 0.95 (≈ 1.94 µM) |  |  |  |  |  |  |  | 
5 | COc1c(C)c(O)c(C(C)=O)c(O)c1Cc1c(O)c(CC=C(C)C)c(O)c(C(C)=O)c1O [MALLOTOJAPONIN] | 0.74 (≈ 1.66 µM) | 0.58 (≈ 1.3 µM) | 78.1 | 0.93 | 49.5 | 14 | 20 | Non-toxic | 0.59 | Non-toxic
